In the supplement of paper PMC10307832:

Experiments:
Test in all cases: relative viability (nuclei count vs DMSO), 5 days (fraction); higher = more cells survive
GSK-J4 + Bortezomib = compound: CCOC(=O)CCNc1cc(N2CCc3ccccc3CC2)nc(-c2ccccn2)n1 [GSK-J4] + CC(C)C[C@H](NC(=O)[C@H](Cc1ccccc1)NC(=O)c1cnccn1)B(O)O [Bortezomib] (partner 0.002 µM)
Procedure, shortened: (§1)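 Lung cancer cell lines in 1536-well plates were dosed by pin tool the day after seeding, either with one drug alone or with a fixed anchor-drug dose plus five library-drug doses (not always all listed) in √10 steps. After 5 days, cells were fixed and their nuclei stained in one step (final 0.05% Triton X-100, 1% formaldehyde, 1 ug/ml Hoechst), then counted on 4× images. Relative viability is the nuclei count in treated wells divided by that in vehicle wells. Values are medians of duplicate plates.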

GSK-J4 + Luminespib = compound: CCOC(=O)CCNc1cc(N2CCc3ccccc3CC2)nc(-c2ccccn2)n1 [GSK-J4] + CCNC(=O)c1noc(-c2cc(C(C)C)c(O)cc2O)c1-c1ccc(CN2CCOCC2)cc1 [Luminespib] (partner 0.01 µM)
Procedure, shortened: as §1

GSK-J4 + Olaparib = compound: CCOC(=O)CCNc1cc(N2CCc3ccccc3CC2)nc(-c2ccccn2)n1 [GSK-J4] + O=C(c1cc(Cc2n[nH]c(=O)c3ccccc23)ccc1F)N1CCN(C(=O)C2CC2)CC1 [Olaparib] (partner 8 µM)
Procedure, shortened: as §1

AZ3146 + Crizotinib = compound: CN1CCC(CC1)OC2=CC(=C(C=C2)NC3=NC=C4C(=N3)N(C(=O)N4C)C5CCCC5)OC [AZ3146] + C[C@@H](Oc1cc(-c2cnn(C3CCNCC3)c2)cnc1N)c1c(Cl)ccc(F)c1Cl [Crizotinib] (partner 1 µM)
Procedure, shortened: as §1

In the case of UMC-11, the relative viability (GSK-J4 + Bortezomib; first compound 0.5 µM) is reported as 0.774, the relative viability (GSK-J4 + Bortezomib; first compound 1.581 µM) is reported as 0.263 and the relative viability (GSK-J4 + Bortezomib; first compound 5 µM) is reported as 0.434. The relative viability (GSK-J4 + Bortezomib; first compound 15.81 µM) was 0.759, the relative viability (GSK-J4 + Bortezomib; first compound 50 µM) was 0.561 and the relative viability (GSK-J4 + Luminespib; first compound 0.5 µM) was 0.996. For the same cell line, the relative viability (GSK-J4 + Luminespib; first compound 5 µM) was 1.03, the relative viability (GSK-J4 + Luminespib; first compound 15.81 µM) was 0.971 and the relative viability (GSK-J4 + Luminespib; first compound 50 µM) was 0.259. For the same cell line, the relative viability (GSK-J4 + Olaparib; first compound 0.5 µM) was 0.364, the relative viability (GSK-J4 + Olaparib; first compound 1.581 µM) was 0.324 and the relative viability (GSK-J4 + Olaparib; first compound 5 µM) was 0.299. For the same cell line, the relative viability (GSK-J4 + Olaparib; first compound 15.81 µM) was 0.353, the relative viability (GSK-J4 + Olaparib; first compound 50 µM) was 0.272 and the relative viability (AZ3146 + Crizotinib; first compound 0.08 µM) was 0.569. For the same cell line, the relative viability (AZ3146 + Crizotinib; first compound 0.253 µM) was 0.636, the relative viability (AZ3146 + Crizotinib; first compound 0.8 µM) was 0.461 and the relative viability (AZ3146 + Crizotinib; first compound 2.53 µM) was 0.177. It also gave a relative viability (AZ3146 + Crizotinib; first compound 8 µM) of 0.136.
